These results are taken from publication PMC6934184, “Selective DNA-PKcs inhibition extends the therapeutic index of localized radiotherapy and chemotherapy” (The Journal of Clinical Investigation, 2019).

The assay addresses T1, PDGFRA D842V (Homo sapiens, UniProt P16234, D842V).
T1 construct: purchased Thermo Fisher Scientific (Life Technologies) SelectScreen
Put plainly: SelectScreen Z'LYTE. The format is biochemical. The procedure, abridged:
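NU5455 was profiled across the SelectScreen Broad panel of kinase activity and binding assays. Z'LYTE reactions such as CSF1R ran at apparent Km ATP, while the Adapta CAMK1 assay used ATP listed as 10. Values are given as percent.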

T1 sequence (P16234 24-1089 D842V): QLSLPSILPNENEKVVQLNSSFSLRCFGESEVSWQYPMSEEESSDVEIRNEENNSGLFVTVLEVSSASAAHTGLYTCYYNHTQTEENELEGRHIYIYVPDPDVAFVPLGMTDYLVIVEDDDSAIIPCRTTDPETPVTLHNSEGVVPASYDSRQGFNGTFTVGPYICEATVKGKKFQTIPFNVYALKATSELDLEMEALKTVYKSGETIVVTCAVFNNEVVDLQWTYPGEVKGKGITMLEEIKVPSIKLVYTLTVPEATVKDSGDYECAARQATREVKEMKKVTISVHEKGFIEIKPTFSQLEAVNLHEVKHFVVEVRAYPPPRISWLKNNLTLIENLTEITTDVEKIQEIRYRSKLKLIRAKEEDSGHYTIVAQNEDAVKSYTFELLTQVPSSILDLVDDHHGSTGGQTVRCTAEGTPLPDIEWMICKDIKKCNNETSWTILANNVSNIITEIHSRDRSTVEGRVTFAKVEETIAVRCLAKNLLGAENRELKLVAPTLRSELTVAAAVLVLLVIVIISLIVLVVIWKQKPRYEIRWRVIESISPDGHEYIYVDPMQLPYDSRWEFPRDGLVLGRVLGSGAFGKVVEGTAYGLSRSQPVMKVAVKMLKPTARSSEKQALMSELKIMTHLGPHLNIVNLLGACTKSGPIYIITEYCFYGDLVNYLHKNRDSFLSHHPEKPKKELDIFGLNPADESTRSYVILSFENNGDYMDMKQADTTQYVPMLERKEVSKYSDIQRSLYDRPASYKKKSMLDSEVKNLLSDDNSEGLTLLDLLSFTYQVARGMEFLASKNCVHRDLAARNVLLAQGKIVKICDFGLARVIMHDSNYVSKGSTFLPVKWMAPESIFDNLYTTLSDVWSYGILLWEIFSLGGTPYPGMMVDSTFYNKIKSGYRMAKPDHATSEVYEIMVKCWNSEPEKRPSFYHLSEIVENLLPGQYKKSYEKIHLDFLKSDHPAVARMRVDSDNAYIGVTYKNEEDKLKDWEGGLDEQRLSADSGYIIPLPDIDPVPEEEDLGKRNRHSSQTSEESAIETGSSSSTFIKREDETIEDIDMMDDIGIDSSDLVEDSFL

On to `CN(C(=O)CN1CCOCC1)c1ccc2sc3c(-c4cccc5c(=O)cc(N6CC7CCC(C6)O7)oc45)cccc3c2c1` [NU5455], for which the inhibition (as a rule, the change of the read-out against control, counted positive when it falls) at 1 µM is -5%.
